# Source: PubChem BioAssay (NCI)
#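 Results reflect a 48-hour exposure of cells in 96-well plates to compound at five concentrations. GI50: concentration for 50% inhibition of growth. TGI: total growth inhibition.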
# How the values were obtained:
# Assay in all cases: NCI anticancer screen, dose series, 48 h
# U251 CNS = tested on: U251 CNS
# SK-MEL-28 melanoma = tested on: SK-MEL-28 melanoma
# SR leukemia = tested on: SR leukemia
# SF-539 CNS = tested on: SF-539 CNS
# XF 498 CNS = tested on: XF 498 CNS
# 786-0 renal = tested on: 786-0 renal
# OVCAR-5 ovarian = tested on: OVCAR-5 ovarian
# CCRF-CEM leukemia = tested on: CCRF-CEM leukemia
# DMS 273 small cell lung = tested on: DMS 273 small cell lung
# T-47D breast = tested on: T-47D breast
Structure (SMILES),TGI (U251 CNS),TGI (SK-MEL-28 melanoma),TGI (SR leukemia),TGI (SF-539 CNS),TGI (XF 498 CNS),TGI (786-0 renal),TGI (OVCAR-5 ovarian),TGI (CCRF-CEM leukemia),TGI (DMS 273 small cell lung),GI50 (U251 CNS),GI50 (T-47D breast),TGI (T-47D breast),GI50 (SK-MEL-28 melanoma),GI50 (SR leukemia),GI50 (SF-539 CNS),GI50 (786-0 renal),GI50 (OVCAR-5 ovarian),GI50 (CCRF-CEM leukemia)
Cc1ccc(/C=C/C(=O)c2ccc([N+](=O)[O-])cc2)cc1,> 100 µM,> 100 µM,> 100 µM,> 100 µM,> 100 µM,> 100 µM,> 100 µM,> 100 µM,> 100 µM,–,–,–,–,–,–,–,–,–
C=C1CCC2C(C)(CO)C(O)CCC2(C)C1C/C=C1/CCOC1=O (stereo unspecified),> 100 µM,–,> 100 µM,> 100 µM,–,> 100 µM,> 100 µM,> 100 µM,> 100 µM,–,–,–,–,–,–,–,–,–
O=C1/C(=C/c2ccc(Cl)c(Cl)c2)CNC/C1=C\c1ccc(Cl)c(Cl)c1,11.9 µM,62.9 µM,> 24 µM,15.9 µM,35.9 µM,5.53 µM,37.4 µM,5.68 µM,19.2 µM,–,–,–,–,–,–,–,–,–
COc1ccc(N=Nc2c(-c3ccccc3)nn(C(=O)CC(=O)Nc3ccccc3Cl)c2-c2ccccc2)cc1,> 100 µM,> 100 µM,11.3 µM,> 100 µM,–,> 100 µM,> 100 µM,> 100 µM,> 100 µM,–,–,–,–,–,–,–,–,–
Cc1cccc(C(C)C)c1NC(=O)CCl,> 100 µM,> 100 µM,> 100 µM,> 100 µM,–,> 100 µM,> 100 µM,> 100 µM,> 100 µM,–,–,–,–,–,–,–,–,–
CC(C)CN1CC(C)C(=O)NC1=O (stereo unspecified),> 100 µM,> 100 µM,> 100 µM,> 100 µM,> 100 µM,> 100 µM,> 100 µM,> 100 µM,> 100 µM,–,–,–,–,–,–,–,–,–
CN(C)C(=S)/N=c1\ss/c(=N\C(=S)N(C)C)n1Cc1ccco1,> 100 µM,> 100 µM,> 100 µM,> 100 µM,–,> 100 µM,–,> 100 µM,> 100 µM,–,–,–,–,–,–,–,–,–
COc1ccc(OC(C)C(=O)O)c2c1CCCC2=O (stereo unspecified),> 100 µM,> 100 µM,> 100 µM,> 100 µM,> 100 µM,> 100 µM,> 100 µM,> 100 µM,> 100 µM,–,–,–,–,–,–,–,–,–
CCOC(=O)C(=O)Nc1ccccc1OCC,> 100 µM,> 100 µM,–,> 100 µM,> 100 µM,> 100 µM,> 100 µM,> 100 µM,–,–,–,–,–,–,–,–,–,–
OCC(O)COc1c(Cl)cc(Cl)cc1Cl (stereo unspecified),> 100 µM,> 100 µM,> 100 µM,> 100 µM,> 100 µM,> 76.5 µM,> 100 µM,> 61.9 µM,> 100 µM,–,–,–,–,–,–,–,–,–
O=C1CCCC(O)=C1SC1=C(O)CCCC1=O,> 100 µM,> 100 µM,–,> 100 µM,–,> 100 µM,> 100 µM,> 100 µM,> 100 µM,–,–,–,–,–,–,–,–,–
O=c1ccn(C2(CO)C=C(CO)C(O)C2O)c(=O)[nH]1 (stereo unspecified),> 25.7 µM,> 25.7 µM,> 25.7 µM,> 25.7 µM,–,> 25.7 µM,–,–,> 25.7 µM,–,–,–,–,–,–,–,–,–
Clc1ccc2nc(Cl)c3ccccc3c2c1,19.9 µM,> 100 µM,> 100 µM,42 µM,–,60.8 µM,> 100 µM,52.9 µM,–,3.21 µM,4.02 µM,> 100 µM,> 100 µM,22 µM,12 µM,9.32 µM,22.1 µM,20.6 µM
